# According to a compilation of properties of binary mixtures (doi:10.1016/j.jct.2011.12.003):
# Assay: xn = mol fraction of the nth substance listed
# Details: 101 kPa
structure (smiles),measurement,setting,value
CCCCCCO + CCCCCCCC[n+]1ccc2ccccc2c1.O=S(=O)([N-]S(=O)(=O)C(F)(F)F)C(F)(F)F,viscosity,"298.15 K, x1 = 1",4.48 mPa·s
same,viscosity,"308.15 K, x1 = 1",3.34 mPa·s
same,viscosity,"318.15 K, x1 = 1",2.54 mPa·s
same,viscosity,"338.15 K, x1 = 1",1.56 mPa·s
CCCCO + CCCCCCCC[n+]1ccc2ccccc2c1.O=S(=O)([N-]S(=O)(=O)C(F)(F)F)C(F)(F)F,viscosity,"298.15 K, x1 = 1",2.54 mPa·s
same,viscosity,"308.15 K, x1 = 1",1.98 mPa·s
same,viscosity,"318.15 K, x1 = 1",1.57 mPa·s
same,viscosity,"328.15 K, x1 = 1",1.26 mPa·s
same,viscosity,"338.15 K, x1 = 1",1.03 mPa·s
OCCc1ccccc1 + CCCCCCCC[n+]1ccc2ccccc2c1.O=S(=O)([N-]S(=O)(=O)C(F)(F)F)C(F)(F)F,viscosity,"298.15 K, x1 = 1",10.9 mPa·s
same,viscosity,"308.15 K, x1 = 1",7.19 mPa·s
same,viscosity,"318.15 K, x1 = 1",4.98 mPa·s
same,viscosity,"328.15 K, x1 = 1",3.64 mPa·s
same,viscosity,"338.15 K, x1 = 1",2.77 mPa·s
CCCCCCCC[n+]1ccc2ccccc2c1.O=S(=O)([N-]S(=O)(=O)C(F)(F)F)C(F)(F)F + CCCCCCO,viscosity,"298.15 K, x2 = 0",369 mPa·s
same,viscosity,"298.15 K, x2 = 0.0854",287.4 mPa·s
same,viscosity,"298.15 K, x2 = 0.2857",136.9 mPa·s
same,viscosity,"298.15 K, x2 = 0.3673",95.1 mPa·s
same,viscosity,"298.15 K, x2 = 0.4981",58.56 mPa·s
same,viscosity,"298.15 K, x2 = 0.5825",42.65 mPa·s
same,viscosity,"298.15 K, x2 = 0.6854",28.18 mPa·s
same,viscosity,"298.15 K, x2 = 0.7913",17.78 mPa·s
same,viscosity,"308.15 K, x2 = 0",191 mPa·s
same,viscosity,"308.15 K, x2 = 0.0854",153.3 mPa·s
same,viscosity,"308.15 K, x2 = 0.2857",78.6 mPa·s
same,viscosity,"308.15 K, x2 = 0.3673",56.09 mPa·s
same,viscosity,"308.15 K, x2 = 0.4981",35.72 mPa·s
same,viscosity,"308.15 K, x2 = 0.5825",26.62 mPa·s
same,viscosity,"308.15 K, x2 = 0.6854",18.08 mPa·s
same,viscosity,"308.15 K, x2 = 0.7913",11.64 mPa·s
same,viscosity,"318.15 K, x2 = 0",108.7 mPa·s
same,viscosity,"318.15 K, x2 = 0.0854",89.2 mPa·s
same,viscosity,"318.15 K, x2 = 0.3673",35.66 mPa·s
same,viscosity,"318.15 K, x2 = 0.4981",23.49 mPa·s
same,viscosity,"318.15 K, x2 = 0.5825",17.79 mPa·s
same,viscosity,"318.15 K, x2 = 0.6854",12.37 mPa·s
same,viscosity,"318.15 K, x2 = 0.7913",8.11 mPa·s
same,viscosity,"328.15 K, x2 = 0",67.9 mPa·s
same,viscosity,"328.15 K, x2 = 0.0854",56.19 mPa·s
same,viscosity,"328.15 K, x2 = 0.2857",32.57 mPa·s
same,viscosity,"328.15 K, x2 = 0.3673",24.14 mPa·s
same,viscosity,"328.15 K, x2 = 0.4981",16.33 mPa·s
same,viscosity,"328.15 K, x2 = 0.5825",12.59 mPa·s
same,viscosity,"328.15 K, x2 = 0.6854",8.87 mPa·s
same,viscosity,"328.15 K, x2 = 0.7913",5.88 mPa·s
same,viscosity,"338.15 K, x2 = 0",44.8 mPa·s
same,viscosity,"338.15 K, x2 = 0.0854",37.54 mPa·s
same,viscosity,"338.15 K, x2 = 0.2857",22.77 mPa·s
same,viscosity,"338.15 K, x2 = 0.3673",17.2 mPa·s
same,viscosity,"338.15 K, x2 = 0.4981",11.88 mPa·s
same,viscosity,"338.15 K, x2 = 0.5825",9.24 mPa·s
same,viscosity,"338.15 K, x2 = 0.7913",4.44 mPa·s
CCCCCCCC[n+]1ccc2ccccc2c1.O=S(=O)([N-]S(=O)(=O)C(F)(F)F)C(F)(F)F + CCCCO,viscosity,"298.15 K, x2 = 0",369 mPa·s
same,viscosity,"298.15 K, x2 = 0.0865",276 mPa·s
same,viscosity,"298.15 K, x2 = 0.1708",205 mPa·s
same,viscosity,"298.15 K, x2 = 0.4036",84.3 mPa·s
same,viscosity,"298.15 K, x2 = 0.6067",33.87 mPa·s
same,viscosity,"298.15 K, x2 = 0.6915",22.84 mPa·s
same,viscosity,"298.15 K, x2 = 0.7937",12.59 mPa·s
same,viscosity,"298.15 K, x2 = 0.9314",6.1 mPa·s
same,viscosity,"308.15 K, x2 = 0",191 mPa·s
same,viscosity,"308.15 K, x2 = 0.0865",151.2 mPa·s
same,viscosity,"308.15 K, x2 = 0.1708",115.2 mPa·s
same,viscosity,"308.15 K, x2 = 0.4036",51.64 mPa·s
same,viscosity,"308.15 K, x2 = 0.5032",34.34 mPa·s
same,viscosity,"308.15 K, x2 = 0.6067",21.89 mPa·s
same,viscosity,"308.15 K, x2 = 0.7937",8.77 mPa·s
same,viscosity,"308.15 K, x2 = 0.9314",4.39 mPa·s
same,viscosity,"318.15 K, x2 = 0",108.7 mPa·s
same,viscosity,"318.15 K, x2 = 0.0865",89.2 mPa·s
same,viscosity,"318.15 K, x2 = 0.1708",69.5 mPa·s
same,viscosity,"318.15 K, x2 = 0.3134",44.66 mPa·s
same,viscosity,"318.15 K, x2 = 0.4036",32.98 mPa·s
same,viscosity,"318.15 K, x2 = 0.5032",22.81 mPa·s
same,viscosity,"318.15 K, x2 = 0.6067",15.04 mPa·s
same,viscosity,"318.15 K, x2 = 0.6915",10.61 mPa·s
same,viscosity,"318.15 K, x2 = 0.9314",3.32 mPa·s
same,viscosity,"328.15 K, x2 = 0",67.9 mPa·s
same,viscosity,"328.15 K, x2 = 0.0865",56.1 mPa·s
same,viscosity,"328.15 K, x2 = 0.3134",29.85 mPa·s
same,viscosity,"328.15 K, x2 = 0.4036",22.59 mPa·s
same,viscosity,"328.15 K, x2 = 0.5032",16.01 mPa·s
same,viscosity,"328.15 K, x2 = 0.6067",10.88 mPa·s
same,viscosity,"328.15 K, x2 = 0.6915",7.77 mPa·s
same,viscosity,"328.15 K, x2 = 0.7937",4.72 mPa·s
same,viscosity,"328.15 K, x2 = 0.9314",2.58 mPa·s
same,viscosity,"338.15 K, x2 = 0",44.88 mPa·s
same,viscosity,"338.15 K, x2 = 0.0865",37.87 mPa·s
same,viscosity,"338.15 K, x2 = 0.1708",31.27 mPa·s
same,viscosity,"338.15 K, x2 = 0.4036",16.68 mPa·s
same,viscosity,"338.15 K, x2 = 0.5032",11.78 mPa·s
same,viscosity,"338.15 K, x2 = 0.6067",8.15 mPa·s
same,viscosity,"338.15 K, x2 = 0.9314",2.06 mPa·s
CCCCCCCC[n+]1ccc2ccccc2c1.O=S(=O)([N-]S(=O)(=O)C(F)(F)F)C(F)(F)F + OCCc1ccccc1,viscosity,"298.15 K, x2 = 0",369 mPa·s
same,viscosity,"298.15 K, x2 = 0.0851",305 mPa·s
same,viscosity,"298.15 K, x2 = 0.1985",219 mPa·s
same,viscosity,"298.15 K, x2 = 0.3101",153.5 mPa·s
same,viscosity,"298.15 K, x2 = 0.3748",126.8 mPa·s
same,viscosity,"298.15 K, x2 = 0.4969",79.7 mPa·s
same,viscosity,"298.15 K, x2 = 0.695",40.23 mPa·s
same,viscosity,"298.15 K, x2 = 0.8076",26.6 mPa·s
same,viscosity,"308.15 K, x2 = 0",191 mPa·s
same,viscosity,"308.15 K, x2 = 0.0851",161.9 mPa·s
same,viscosity,"308.15 K, x2 = 0.1985",119.7 mPa·s
same,viscosity,"308.15 K, x2 = 0.3101",86.7 mPa·s
same,viscosity,"308.15 K, x2 = 0.3748",72.7 mPa·s
same,viscosity,"308.15 K, x2 = 0.4969",47.31 mPa·s
same,viscosity,"308.15 K, x2 = 0.5766",36.67 mPa·s
same,viscosity,"308.15 K, x2 = 0.8076",16.96 mPa·s
same,viscosity,"308.15 K, x2 = 0.8956",12.09 mPa·s
same,viscosity,"318.15 K, x2 = 0",108.7 mPa·s
same,viscosity,"318.15 K, x2 = 0.0851",93.8 mPa·s
same,viscosity,"318.15 K, x2 = 0.3101",53.23 mPa·s
same,viscosity,"318.15 K, x2 = 0.4969",30.33 mPa·s
same,viscosity,"318.15 K, x2 = 0.695",16.64 mPa·s
same,viscosity,"318.15 K, x2 = 0.8076",11.53 mPa·s
same,viscosity,"318.15 K, x2 = 0.8956",8.35 mPa·s
same,viscosity,"328.15 K, x2 = 0",67.9 mPa·s
same,viscosity,"328.15 K, x2 = 0.1985",45.88 mPa·s
same,viscosity,"328.15 K, x2 = 0.3101",35.03 mPa·s
same,viscosity,"328.15 K, x2 = 0.4969",20.59 mPa·s
same,viscosity,"328.15 K, x2 = 0.8076",8.23 mPa·s
same,viscosity,"328.15 K, x2 = 0.8956",5.99 mPa·s
same,viscosity,"338.15 K, x2 = 0",44.8 mPa·s
same,viscosity,"338.15 K, x2 = 0.1985",31.17 mPa·s
same,viscosity,"338.15 K, x2 = 0.3101",24.37 mPa·s
same,viscosity,"338.15 K, x2 = 0.4969",14.79 mPa·s
same,viscosity,"338.15 K, x2 = 0.5766",12.01 mPa·s
same,viscosity,"338.15 K, x2 = 0.8076",6.09 mPa·s
same,viscosity,"338.15 K, x2 = 0.8956",4.45 mPa·s
